Reference: PMC4251666 (ACS chemical biology, 2012)

Tested on: cytosolic cysteine proteases
Assay: Calpain activity assay in isolated renal cytosol
Type: biochemical, New Zealand White rabbits
Conditions: 10 μM, 50 μM SLLVY-AMC

## CCCC[C@@H](C=O)NC(=O)[C@H](CC(C)C)NC(=O)OCc1ccccc1 [Calpeptin]
  inhibition of activity in isolated cytosol: ~ 50%
